Source: the supplement of paper PMC10307832

Experiments:
Assay in all cases: relative viability (nuclei count vs DMSO), 5 days (fraction); higher = more cells survive
[1] = compound: Nc1ccccc1NC(=O)c1ccc(CNC(=O)OCc2cccnc2)cc1 [Entinostat] + Nc1nc2[nH]cc(CCc3ccc(C(=O)N[C@@H](CCC(=O)O)C(=O)O)cc3)c2c(=O)[nH]1 [Pemetrexed] (partner 0.2 µM)
Outline: (§1)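 Nuclei were stained with Hoechst during a one-step fixation (final 0.05% Triton X-100, 1% formaldehyde, 1 ug/ml Hoechst) carried out 5 days after dosing, then counted on 4× images. The cells, lung cancer lines in 1536-well plates, had been dosed by pin tool the day after seeding with one drug alone or a fixed anchor-drug dose plus five library-drug doses (not always all listed) in √10 steps. Relative viability is the nuclei count in treated wells divided by that in vehicle wells, and each value is the median of duplicate plates.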

[2] = compound: Nc1ccccc1NC(=O)c1ccc(CNC(=O)OCc2cccnc2)cc1 [Entinostat] + CCNC(=O)c1noc(-c2cc(C(C)C)c(O)cc2O)c1-c1ccc(CN2CCOCC2)cc1 [Luminespib] (partner 0.01 µM)
Outline: as §1

[3] = compound: CN1CCC(CNc2ccc3ncc(-c4cccc(OC(F)(F)F)c4)n3n2)CC1 [SGI-1776] + C[C@]1(O)C[C@@H](c2nc(-c3ccc4ccc(-c5ccccc5)nc4c3)c3c(N)nccn32)C1 [Linsitinib] (partner 1 µM)
Outline: as §1

[4] = compound: Nc1ccccc1NC(=O)c1ccc(CNC(=O)OCc2cccnc2)cc1 [Entinostat] + COc1cccc2cc(-c3nc([C@H]4CC[C@H](C(=O)O)CC4)n4ncnc(N)c34)[nH]c12 [OSI-027] (partner 0.5 µM)
Outline: as §1

Cell Line	relative viability ([1]; first compound 0.02 µM)	relative viability ([1]; first compound 0.06325 µM)	relative viability ([1]; first compound 0.2 µM)	relative viability ([1]; first compound 0.6325 µM)	relative viability ([1]; first compound 2 µM)	relative viability ([2]; first compound 0.02 µM)	relative viability ([2]; first compound 0.06325 µM)	relative viability ([2]; first compound 0.2 µM)	relative viability ([2]; first compound 0.6325 µM)	relative viability ([2]; first compound 2 µM)	relative viability ([3]; first compound 0.08 µM)	relative viability ([3]; first compound 0.8 µM)	relative viability ([3]; first compound 2.53 µM)	relative viability ([3]; first compound 8 µM)	relative viability ([4]; first compound 0.02 µM)	relative viability ([4]; first compound 0.06325 µM)	relative viability ([4]; first compound 0.2 µM)	relative viability ([4]; first compound 0.6325 µM)	relative viability ([4]; first compound 2 µM)
HCC-827	0.268	0.265	0.227	0.229	0.187	0.505	0.309	0.401	0.202	0.197	0.961	0.978	0.952	0.875	0.713	0.749	0.688	0.402	0.292
HOP-62	0.23	0.301	0.286	0.229	0.188	0.944	0.818	0.824	0.71	0.431	0.823	0.877	1.23	1.04	0.801	0.882	0.85	0.49	0.248
IA-LM											0.732	0.603	0.593	0.692					
LC-2-ad	0.286	0.276	0.28	0.302	0.33	1.04	0.936	0.816	0.65	0.298	0.842	0.959	0.911	0.639	0.768	0.842	0.578	0.349	0.27
LCLC-97TM1	0.149	0.169	0.148	0.196	0.168	0.939	0.798	0.695	0.808	0.491	0.193	0.154	0.187	0.16	0.583	0.462	0.51	0.408	0.43
LCLC-103H	0.472	0.463	0.443	0.454	0.426	0.979	0.967	0.909	0.715	0.288	1.07	0.972	1.1	0.979	0.473	0.555	0.504	0.393	0.279
LK-2	0.365	0.278	0.282	0.276	0.132	0.18	0.192	0.178	0.188	0.178	0.697	0.773	0.523	0.418	0.221	0.187	0.188	0.188	0.18
LOU-NH91	0.381	0.333	0.326	0.341	0.379	0.341	0.333	0.371	0.394	0.337	1.06	1.03	0.955	0.666	0.719	0.761	0.708	0.652	0.585
LU99A	0.188	0.181	0.184	0.175	0.179	0.286	0.255	0.322	0.211	0.281	0.573	0.54	0.545	0.432	0.308	0.314	0.353	0.27	0.296
LXF-289	0.878	0.878	0.869	0.719	0.665	0.754	0.675	0.739	0.494	0.354	0.992	0.98	1.01	0.97	0.795	0.765	0.894	0.582	0.395
NCI-H23	0.76	0.892	0.728	0.685	0.319	0.187	0.21	0.229	0.199	0.18	0.724	0.541	0.517	0.411	0.711	0.774	0.648	0.463	0.287
NCI-H522	0.848	1.21	1.12	1.04	0.774	1.21	1.33	1.38	1.1	0.649					0.84	0.764	0.85	0.688	0.555
NCI-H727						0.326	0.413	0.364	0.328	0.459	0.254	0.26	0.346	0.241	0.679	0.808	0.5	0.493	0.398
NCI-H1299											1.02	0.972	0.966	0.921					
NCI-H1623						0.632	0.554	0.443	0.472	0.279					0.445	0.565	0.429	0.298	0.339
NCI-H1648	0.736	0.685	0.772	0.38	0.407										0.247	0.27	0.257	0.271	0.296
NCI-H1650	0.389	0.455	0.44	0.359	0.241	0.214	0.198	0.185	0.212	0.195					0.73	0.585	0.589	0.349	0.184
NCI-H1703											0.662	0.979	0.433	0.13					
NCI-H2170	0.255	0.283	0.273	0.228	0.229	0.778	0.654	0.643	0.47	0.329					0.745	0.65	0.742	0.607	0.373
NCI-H2342	0.811	0.849	0.708	0.638	0.668	0.69	0.729	0.744	0.589	0.553					0.651	0.587	0.629	0.598	0.524
SW 900	0.529	0.51	0.448	0.489	0.43	0.185	0.157	0.222	0.163	0.202					0.696	0.659	0.647	0.319	0.397
